Results published in paper PMC5290327, “SC83288 is a clinical development candidate for the treatment of severe malaria” (Nature Communications, 2017).

Key:
Experiment in all cases: KINOMEscan
Format in all cases: binding
Conditions in all cases: read-out: Remaining enzyme activity
ABL1(H396P) = biological target: T1, ABL1(H396P) (Homo sapiens, UniProt P00519, H396P)
T1 construct: purchased Ambit (DiscoverX) KINOMEscan; Cerep
Experimental: (§1) The KINOMEscan was carried out by Ambit (San Diego, USA) according to a previously established protocol. The experiment was based on a competition binding assay that quantitatively measures the ability of a compound to compete with an immobilized, active-site directed ligand. The assay is performed by combining three components: DNA-tagged kinase; immobilized ligand; and a test compound. The ability of the test compound to compete with the immobilized ligand is measured via quantitative PCR of the DNA tag.
(§2) For most assays, kinase-tagged T7 phage strains were grown in parallel in 24-well blocks in an Escherichia coli host derived from the BL21 strain. E. coli were grown to log-phase and infected with T7 phage from a frozen stock and incubated with shaking at 32 °C until lysis (90–150 min). The lysates were centrifuged (6,000g) and filtered (0.2 μm) to remove cell debris. The remaining kinases were produced in HEK-293 cells (Sigma Aldrich, catalogue number: 85120602) and subsequently tagged with DNA for quantitative PCR detection. […] The liganded beads were blocked with excess biotin and washed with blocking buffer (SeaBlock (Pierce), 1% bovine serum albumin, 0.05% Tween 20 and 1 mM dithiothreitol) to remove unbound ligand and to reduce non-specific phage binding. […] SC81458 was prepared as 40x stock in 100% DMSO and directly diluted into the assay to a final concentration of 10 μM. All reactions were performed in polypropylene 384-well plates in a final volume of 0.04 ml. […] The kinase concentration in the eluates was measured by quantitative PCR.

CAMK1 = biological target: T2, CAMK1 (Homo sapiens, UniProt Q14012)
T2 construct: purchased Ambit (DiscoverX) KINOMEscan; Cerep
Experimental: as §1, §2

KIT(V559D, T670I) = biological target: T3, KIT(V559D, T670I) (Homo sapiens, UniProt P10721, T670I/V559D)
T3 construct: purchased Ambit (DiscoverX) KINOMEscan; Cerep
Experimental: as §1, §2

CDKL2 = biological target: T4, CDKL2 (Homo sapiens, UniProt Q92772)
T4 construct: purchased Ambit (DiscoverX) KINOMEscan; Cerep
T4 sequence (Q92772 whole entry): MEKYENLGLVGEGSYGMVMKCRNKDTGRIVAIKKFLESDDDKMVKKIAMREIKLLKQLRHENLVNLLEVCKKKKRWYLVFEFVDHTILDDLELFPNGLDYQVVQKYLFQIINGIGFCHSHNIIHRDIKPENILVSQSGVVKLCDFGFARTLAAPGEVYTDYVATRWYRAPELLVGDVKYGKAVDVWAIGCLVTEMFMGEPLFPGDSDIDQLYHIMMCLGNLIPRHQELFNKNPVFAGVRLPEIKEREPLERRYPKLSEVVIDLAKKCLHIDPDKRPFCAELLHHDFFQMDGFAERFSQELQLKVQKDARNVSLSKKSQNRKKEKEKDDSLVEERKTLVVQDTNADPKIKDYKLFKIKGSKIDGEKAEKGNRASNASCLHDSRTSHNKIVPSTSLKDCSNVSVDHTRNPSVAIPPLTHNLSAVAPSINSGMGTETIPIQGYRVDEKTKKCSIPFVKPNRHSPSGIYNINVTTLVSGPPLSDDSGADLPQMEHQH
Experimental: as §1, §2

FGFR3 = biological target: T5, FGFR3 (Homo sapiens, UniProt P22607)
T5 construct: purchased Ambit (DiscoverX) KINOMEscan; Cerep
T5 sequence (P22607 23-806): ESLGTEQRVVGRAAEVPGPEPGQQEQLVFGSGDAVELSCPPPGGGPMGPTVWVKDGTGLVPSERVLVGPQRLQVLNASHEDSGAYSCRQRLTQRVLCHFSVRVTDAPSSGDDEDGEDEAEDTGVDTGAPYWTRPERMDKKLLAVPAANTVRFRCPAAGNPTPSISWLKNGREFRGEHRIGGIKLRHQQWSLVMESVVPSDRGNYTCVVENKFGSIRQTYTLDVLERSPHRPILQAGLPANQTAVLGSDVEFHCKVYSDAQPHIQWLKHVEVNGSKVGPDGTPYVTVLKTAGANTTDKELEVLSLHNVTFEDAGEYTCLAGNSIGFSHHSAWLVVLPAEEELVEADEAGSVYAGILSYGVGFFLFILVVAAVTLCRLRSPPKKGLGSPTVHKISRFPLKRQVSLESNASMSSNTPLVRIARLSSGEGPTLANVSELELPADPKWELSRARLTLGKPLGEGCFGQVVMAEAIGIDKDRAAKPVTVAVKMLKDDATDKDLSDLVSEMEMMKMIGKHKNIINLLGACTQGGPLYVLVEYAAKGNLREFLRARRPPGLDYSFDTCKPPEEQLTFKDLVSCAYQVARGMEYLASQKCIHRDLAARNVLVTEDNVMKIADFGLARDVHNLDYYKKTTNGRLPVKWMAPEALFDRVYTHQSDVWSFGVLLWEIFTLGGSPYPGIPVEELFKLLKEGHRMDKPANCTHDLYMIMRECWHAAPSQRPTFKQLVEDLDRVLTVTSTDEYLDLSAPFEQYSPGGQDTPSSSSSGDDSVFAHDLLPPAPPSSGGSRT
Experimental: as §1, §2

GAK = biological target: T6, GAK (Homo sapiens, UniProt O14976)
T6 construct: purchased Ambit (DiscoverX) KINOMEscan; Cerep
Experimental: as §1, §2

AURKA = biological target: T7, AURKA (Homo sapiens, UniProt O14965)
T7 construct: purchased Ambit (DiscoverX) KINOMEscan; Cerep
Experimental: as §1, §2

[1] = biological target: T8, RPS6KA4(Kin.Dom.1-N-term) (Homo sapiens, UniProt O75676)
T8 construct: RPS6KA4(Kin.Dom.1-N-term); purchased Ambit (DiscoverX) KINOMEscan; Cerep
T8 sequence (O75676 33-301 limits assumed): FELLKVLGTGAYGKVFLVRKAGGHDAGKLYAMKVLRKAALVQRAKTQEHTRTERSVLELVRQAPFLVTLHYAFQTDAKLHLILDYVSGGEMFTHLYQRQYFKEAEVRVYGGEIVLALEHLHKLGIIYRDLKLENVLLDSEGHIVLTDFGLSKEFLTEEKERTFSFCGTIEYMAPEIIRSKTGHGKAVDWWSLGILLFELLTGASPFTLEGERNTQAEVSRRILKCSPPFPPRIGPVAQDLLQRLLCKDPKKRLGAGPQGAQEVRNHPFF
Experimental: as §1, §2

CDK11 = biological target: T9, CDK11 (Homo sapiens, UniProt Q9BWU1)
T9 construct: purchased Ambit (DiscoverX) KINOMEscan; Cerep
Experimental: as §1, §2

FGFR1 = biological target: T10, FGFR1 (Homo sapiens, UniProt P11362)
T10 construct: purchased Ambit (DiscoverX) KINOMEscan; Cerep
Experimental: as §1, §2

ASK1 = biological target: T11, ASK1 (Homo sapiens, UniProt Q99683)
T11 construct: purchased Ambit (DiscoverX) KINOMEscan; Cerep
T11 sequence (Q99683 whole entry): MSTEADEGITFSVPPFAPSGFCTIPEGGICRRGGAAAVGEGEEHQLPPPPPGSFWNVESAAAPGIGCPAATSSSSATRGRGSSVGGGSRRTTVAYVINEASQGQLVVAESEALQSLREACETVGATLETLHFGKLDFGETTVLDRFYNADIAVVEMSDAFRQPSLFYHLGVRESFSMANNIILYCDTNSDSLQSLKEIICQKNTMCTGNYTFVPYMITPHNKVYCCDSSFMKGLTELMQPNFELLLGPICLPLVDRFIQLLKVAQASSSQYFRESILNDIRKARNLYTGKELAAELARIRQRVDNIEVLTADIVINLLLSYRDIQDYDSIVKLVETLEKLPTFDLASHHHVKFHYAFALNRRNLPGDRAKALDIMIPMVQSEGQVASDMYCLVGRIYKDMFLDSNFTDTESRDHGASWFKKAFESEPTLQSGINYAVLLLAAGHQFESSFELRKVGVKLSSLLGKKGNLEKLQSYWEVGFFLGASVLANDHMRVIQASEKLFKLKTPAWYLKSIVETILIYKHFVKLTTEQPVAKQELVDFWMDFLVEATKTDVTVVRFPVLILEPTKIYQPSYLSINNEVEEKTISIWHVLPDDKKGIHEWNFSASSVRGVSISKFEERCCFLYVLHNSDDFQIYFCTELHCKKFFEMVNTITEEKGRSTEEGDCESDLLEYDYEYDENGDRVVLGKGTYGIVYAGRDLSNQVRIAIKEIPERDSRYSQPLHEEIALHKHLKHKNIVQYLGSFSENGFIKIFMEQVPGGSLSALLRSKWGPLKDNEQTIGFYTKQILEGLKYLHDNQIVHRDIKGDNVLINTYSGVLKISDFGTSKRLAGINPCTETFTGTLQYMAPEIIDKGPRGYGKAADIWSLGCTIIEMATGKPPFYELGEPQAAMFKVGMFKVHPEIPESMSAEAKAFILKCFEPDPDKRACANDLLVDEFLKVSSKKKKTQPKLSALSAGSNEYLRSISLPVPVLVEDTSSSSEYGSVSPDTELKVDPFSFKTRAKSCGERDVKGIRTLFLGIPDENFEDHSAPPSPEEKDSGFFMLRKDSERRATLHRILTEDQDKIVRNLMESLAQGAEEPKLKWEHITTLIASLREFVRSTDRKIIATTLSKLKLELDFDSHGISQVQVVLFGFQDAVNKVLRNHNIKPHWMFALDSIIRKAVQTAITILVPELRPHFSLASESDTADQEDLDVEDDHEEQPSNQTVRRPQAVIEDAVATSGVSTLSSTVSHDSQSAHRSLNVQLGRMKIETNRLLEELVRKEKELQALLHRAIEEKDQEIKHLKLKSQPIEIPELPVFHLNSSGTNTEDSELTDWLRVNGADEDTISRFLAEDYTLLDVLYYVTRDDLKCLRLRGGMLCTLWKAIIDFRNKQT
Experimental: as §1, §2

HUNK = biological target: T12, HUNK (Homo sapiens, UniProt P57058)
T12 construct: purchased Ambit (DiscoverX) KINOMEscan; Cerep
Experimental: as §1, §2

PHKG2 = biological target: T13, PHKG2 (Homo sapiens, UniProt P15735)
T13 construct: purchased Ambit (DiscoverX) KINOMEscan; Cerep
T13 sequence (P15735 whole entry): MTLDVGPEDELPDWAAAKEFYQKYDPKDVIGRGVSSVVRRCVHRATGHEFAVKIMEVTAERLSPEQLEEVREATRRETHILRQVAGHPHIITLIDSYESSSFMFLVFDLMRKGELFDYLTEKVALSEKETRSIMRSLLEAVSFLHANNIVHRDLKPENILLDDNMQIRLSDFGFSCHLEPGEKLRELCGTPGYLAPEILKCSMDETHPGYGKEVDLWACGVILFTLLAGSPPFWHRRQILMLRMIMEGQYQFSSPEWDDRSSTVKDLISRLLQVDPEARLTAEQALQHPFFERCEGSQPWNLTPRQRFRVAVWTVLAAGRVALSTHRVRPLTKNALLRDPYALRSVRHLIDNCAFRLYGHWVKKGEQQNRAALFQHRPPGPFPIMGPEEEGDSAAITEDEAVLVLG
Experimental: as §1, §2

LYN = biological target: T14, LYN (Homo sapiens, UniProt P07948)
T14 construct: purchased Ambit (DiscoverX) KINOMEscan; Cerep
Experimental: as §1, §2

EPHA4 = biological target: T15, EPHA4 (Homo sapiens, UniProt P54764)
T15 construct: purchased Ambit (DiscoverX) KINOMEscan; Cerep
Experimental: as §1, §2

TBK1 = biological target: T16, TBK1 (Homo sapiens, UniProt Q9UHD2)
T16 construct: purchased Ambit (DiscoverX) KINOMEscan; Cerep
T16 sequence (Q9UHD2 whole entry): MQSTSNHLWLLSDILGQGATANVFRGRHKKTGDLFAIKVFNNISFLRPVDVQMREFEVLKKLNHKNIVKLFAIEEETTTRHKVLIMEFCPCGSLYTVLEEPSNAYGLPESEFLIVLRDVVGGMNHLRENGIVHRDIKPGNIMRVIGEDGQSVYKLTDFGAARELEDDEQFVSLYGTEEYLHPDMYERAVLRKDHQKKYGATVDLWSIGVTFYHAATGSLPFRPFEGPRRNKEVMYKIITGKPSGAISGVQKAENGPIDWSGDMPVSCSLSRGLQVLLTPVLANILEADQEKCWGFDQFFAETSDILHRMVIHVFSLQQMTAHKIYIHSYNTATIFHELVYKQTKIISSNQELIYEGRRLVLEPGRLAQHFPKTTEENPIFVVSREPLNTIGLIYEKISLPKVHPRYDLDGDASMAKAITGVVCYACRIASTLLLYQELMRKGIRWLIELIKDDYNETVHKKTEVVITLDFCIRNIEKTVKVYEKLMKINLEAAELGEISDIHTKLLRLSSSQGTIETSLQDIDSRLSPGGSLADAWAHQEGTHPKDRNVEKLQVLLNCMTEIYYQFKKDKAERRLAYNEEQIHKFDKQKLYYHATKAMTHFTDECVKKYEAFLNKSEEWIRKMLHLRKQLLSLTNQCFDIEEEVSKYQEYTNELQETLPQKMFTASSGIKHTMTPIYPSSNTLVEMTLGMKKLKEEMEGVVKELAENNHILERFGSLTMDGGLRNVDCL
Experimental: as §1, §2

[2] = biological target: T17, RPS6KA3(Kin.Dom.1-N-term) (Homo sapiens, UniProt P51812)
T17 construct: RPS6KA3(Kin.Dom.1-N-term); purchased Ambit (DiscoverX) KINOMEscan; Cerep
T17 sequence (P51812 68-327 limits assumed): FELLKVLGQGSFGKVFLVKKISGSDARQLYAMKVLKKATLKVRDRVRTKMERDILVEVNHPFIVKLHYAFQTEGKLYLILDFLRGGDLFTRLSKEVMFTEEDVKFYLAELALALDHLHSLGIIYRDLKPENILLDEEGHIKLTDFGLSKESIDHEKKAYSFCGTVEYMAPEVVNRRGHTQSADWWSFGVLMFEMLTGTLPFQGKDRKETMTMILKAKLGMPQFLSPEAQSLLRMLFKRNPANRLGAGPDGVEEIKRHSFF
Experimental: as §1, §2

p38-beta = biological target: T18, p38-beta (Homo sapiens, UniProt Q15759)
T18 construct: purchased Ambit (DiscoverX) KINOMEscan; Cerep
Experimental: as §1, §2

TXK = biological target: T19, TXK (Homo sapiens, UniProt P42681)
T19 construct: purchased Ambit (DiscoverX) KINOMEscan; Cerep
Experimental: as §1, §2

DRAK1 = biological target: T20, DRAK1 (Homo sapiens, UniProt Q9UEE5)
T20 construct: purchased Ambit (DiscoverX) KINOMEscan; Cerep
Experimental: as §1, §2

ULK1 = biological target: T21, ULK1 (Homo sapiens, UniProt O75385)
T21 construct: purchased Ambit (DiscoverX) KINOMEscan; Cerep
Experimental: as §1, §2

ERBB3 = biological target: T22, ERBB3 (Homo sapiens, UniProt P21860)
T22 construct: purchased Ambit (DiscoverX) KINOMEscan; Cerep
Experimental: as §1, §2

TSSK1B = biological target: T23, TSSK1B (Homo sapiens, UniProt Q9BXA7)
T23 construct: purchased Ambit (DiscoverX) KINOMEscan; Cerep
Experimental: as §1, §2

PHKG1 = biological target: T24, PHKG1 (Homo sapiens, UniProt Q16816)
T24 construct: purchased Ambit (DiscoverX) KINOMEscan; Cerep
Experimental: as §1, §2

PIP5K1a = biological target: T25, PIP5K1a (Homo sapiens, UniProt Q99755)
T25 construct: purchased Ambit (DiscoverX) KINOMEscan; Cerep
T25 sequence (Q99755 whole entry): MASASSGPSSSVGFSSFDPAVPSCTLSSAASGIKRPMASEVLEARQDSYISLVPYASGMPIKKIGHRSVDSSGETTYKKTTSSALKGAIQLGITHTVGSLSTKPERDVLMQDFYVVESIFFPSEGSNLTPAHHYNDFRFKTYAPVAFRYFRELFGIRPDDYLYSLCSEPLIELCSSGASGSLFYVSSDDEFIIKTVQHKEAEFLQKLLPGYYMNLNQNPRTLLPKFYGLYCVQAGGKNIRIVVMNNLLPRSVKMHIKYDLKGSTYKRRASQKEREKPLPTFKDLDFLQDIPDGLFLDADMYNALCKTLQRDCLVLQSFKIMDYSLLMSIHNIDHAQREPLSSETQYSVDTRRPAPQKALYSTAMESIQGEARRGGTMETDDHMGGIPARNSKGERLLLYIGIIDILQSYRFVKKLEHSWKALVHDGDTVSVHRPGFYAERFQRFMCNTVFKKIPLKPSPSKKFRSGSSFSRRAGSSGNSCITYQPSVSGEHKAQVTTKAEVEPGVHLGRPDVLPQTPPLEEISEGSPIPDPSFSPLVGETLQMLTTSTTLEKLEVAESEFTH
Experimental: as §1, §2

HPK1 = biological target: T26, HPK1 (Homo sapiens, UniProt Q92918)
T26 construct: purchased Ambit (DiscoverX) KINOMEscan; Cerep
Experimental: as §1, §2

FAK = biological target: T27, FAK (Homo sapiens, UniProt Q05397)
T27 construct: purchased Ambit (DiscoverX) KINOMEscan; Cerep
Experimental: as §1, §2

NDR1 = biological target: T28, NDR1 (Homo sapiens, UniProt Q15208)
T28 construct: purchased Ambit (DiscoverX) KINOMEscan; Cerep
Experimental: as §1, §2

CTK = biological target: T29, CTK (Homo sapiens, UniProt P42679)
T29 construct: purchased Ambit (DiscoverX) KINOMEscan; Cerep
Experimental: as §1, §2

SRMS = biological target: T30, SRMS (Homo sapiens, UniProt Q9H3Y6)
T30 construct: purchased Ambit (DiscoverX) KINOMEscan; Cerep
Experimental: as §1, §2

[3] = biological target: T31, RPS6KA6(Kin.Dom.2-C-term) (Homo sapiens, UniProt Q9UK32)
T31 construct: RPS6KA6(Kin.Dom.2-C-term); purchased Ambit (DiscoverX) KINOMEscan; Cerep
Experimental: as §1, §2

CSF1R = biological target: T32, CSF1R (Homo sapiens, UniProt P07333)
T32 construct: purchased Ambit (DiscoverX) KINOMEscan; Cerep
Experimental: as §1, §2

CCCCN1CCN(C(=N)c2cccc(NC(=O)Nc3ccc(S(=O)(=O)NCc4ccc(S(N)(=O)=O)cc4)cc3)c2)CC1 [SC81458, 4-(3-(3-((4-butylpiperazin-1-yl)(imino)methyl)phenyl)ureido)-N-(4-sulfamoylbenzyl) benzenesulfonamide]
remaining binding at 10 µM (ABL1(H396P)): 100% | remaining binding at 10 µM (CAMK1): 82% | remaining binding at 10 µM (KIT(V559D, T670I)): 85% | remaining binding at 10 µM (CDKL2): 100% | remaining binding at 10 µM (FGFR3): 100% | remaining binding at 10 µM (GAK): 92% | remaining binding at 10 µM (AURKA): 68% | remaining binding at 10 µM [1]: 85% | remaining binding at 10 µM (CDK11): 91% | remaining binding at 10 µM (FGFR1): 100% | remaining binding at 10 µM (ASK1): 100% | remaining binding at 10 µM (HUNK): 100% | remaining binding at 10 µM (PHKG2): 100% | remaining binding at 10 µM (LYN): 97% | remaining binding at 10 µM (EPHA4): 98% | remaining binding at 10 µM (TBK1): 100% | remaining binding at 10 µM [2]: 100% | remaining binding at 10 µM (p38-beta): 100% | remaining binding at 10 µM (TXK): 87% | remaining binding at 10 µM (DRAK1): 98% | remaining binding at 10 µM (ULK1): 100% | remaining binding at 10 µM (ERBB3): 81% | remaining binding at 10 µM (TSSK1B): 97% | remaining binding at 10 µM (PHKG1): 80% | remaining binding at 10 µM (PIP5K1a): 100% | remaining binding at 10 µM (HPK1): 100% | remaining binding at 10 µM (FAK): 100% | remaining binding at 10 µM (NDR1): 100% | remaining binding at 10 µM (CTK): 100% | remaining binding at 10 µM (SRMS): 79% | remaining binding at 10 µM [3]: 100% | remaining binding at 10 µM (CSF1R): 82%
